Results reported in US10815230B2, “Casein kinase 1 delta inhibitor” (ELECTROPHORETICS LIMITED, priority 2015, dated 2020).

Key:
Experiment in all cases: KINOMEscan binding assay
Details in all cases: read-out: % Ctrl @ 10000 nM
[1] = target: ABL1 (F317L) phosphorylated (Homo sapiens, UniProt P00519, F317L)
ABL1 phosphorylated = ABL1 phosphorylated (Homo sapiens, UniProt P00519)
CDK11 = CDK11 (Homo sapiens, UniProt Q9BWU1)
CSNK1G1 = CSNK1G1 (Homo sapiens, UniProt Q9HCP0)
DCAMKL3 = DCAMKL3 (Homo sapiens, UniProt Q9C098)
DYRK1A = DYRK1A (Homo sapiens, UniProt Q13627)
EGFR (L861Q) = EGFR (L861Q) (Homo sapiens, UniProt P00533, L861Q)
EPHA2 = EPHA2 (Homo sapiens, UniProt P29317)
EPHA3 = EPHA3 (Homo sapiens, UniProt P29320)
EPHA5 = EPHA5 (Homo sapiens, UniProt P54756)
EPHA6 = EPHA6 (Homo sapiens, UniProt Q9UF33)
FAK = FAK (Homo sapiens, UniProt Q05397)
FGFR2 = FGFR2 (Homo sapiens, UniProt P21802)
HIPK2 = HIPK2 (Homo sapiens, UniProt Q9H2X6)
IRAK1 = IRAK1 (Homo sapiens, UniProt P51617)
KIT (D816H) = KIT (D816H) (Homo sapiens, UniProt P10721, D816H)
LIMK1 = LIMK1 (Homo sapiens, UniProt P53667)
LIMK2 = LIMK2 (Homo sapiens, UniProt P53671)
MAP4K2 = target: T1, MAP4K2 (Homo sapiens, UniProt Q12851)
T1 construct: T7 phage fusion (most assays) or DNA label after HEK293 expression; purchased DiscoveRx (KINOMEscan, LeadHunter Discovery services); host or cells: T7 phage in E. coli (BL21-derived) or HEK293

MAP4K3 = target: T2, MAP4K3 (Homo sapiens, UniProt Q8IVH8)
T2 construct: T7 phage fusion (most assays) or DNA label after HEK293 expression; purchased DiscoveRx (KINOMEscan, LeadHunter Discovery services); host or cells: T7 phage in E. coli (BL21-derived) or HEK293

MEK5 = MEK5 (Homo sapiens, UniProt Q13163)
MKNK1 = MKNK1 (Homo sapiens, UniProt Q9BUB5)
MYO3A = MYO3A (Homo sapiens, UniProt Q8NEV4)
PAK3 = PAK3 (Homo sapiens, UniProt O75914)
PAK6 = PAK6 (Homo sapiens, UniProt Q9NQU5)
PAK7 = PAK7 (Homo sapiens, UniProt Q9P286)
PDPK1 = PDPK1 (Homo sapiens, UniProt O15530)
PFCDPK1 P. falciparum = PFCDPK1 P. falciparum (Plasmodium falciparum, UniProt P62344)
PIK3CA (E545A) = PIK3CA (E545A) (Homo sapiens, UniProt P42336, E545A)
PIK3CA (E545K) = PIK3CA (E545K) (Homo sapiens, UniProt P42336, E545K)
PIK3CA (I800L) = PIK3CA (I800L) (Homo sapiens, UniProt P42336, I800L)
PIK3CA (M1043I) = PIK3CA (M1043I) (Homo sapiens, UniProt P42336, M1043I)
PLK4 = PLK4 (Homo sapiens, UniProt O00444)
RET (V804M) = RET (V804M) (Homo sapiens, UniProt P07949, V804M)
ROS1 = ROS1 (Homo sapiens, UniProt P08922)
[2] = target: RPS6KA4 Kin.Dom.2-C-terminal (Homo sapiens, UniProt O75676)
[3] = target: RPS6KA5 Kin.Dom.2-C-terminal (Homo sapiens, UniProt O75582)
[4] = target: RSK3 Kin.Dom.2-C-terminal (Homo sapiens, UniProt Q15349)
SRMS = SRMS (Homo sapiens, UniProt Q9H3Y6)
TTK = TTK (Homo sapiens, UniProt P33981)

Chain of EPHA5 (P54756 25-1037): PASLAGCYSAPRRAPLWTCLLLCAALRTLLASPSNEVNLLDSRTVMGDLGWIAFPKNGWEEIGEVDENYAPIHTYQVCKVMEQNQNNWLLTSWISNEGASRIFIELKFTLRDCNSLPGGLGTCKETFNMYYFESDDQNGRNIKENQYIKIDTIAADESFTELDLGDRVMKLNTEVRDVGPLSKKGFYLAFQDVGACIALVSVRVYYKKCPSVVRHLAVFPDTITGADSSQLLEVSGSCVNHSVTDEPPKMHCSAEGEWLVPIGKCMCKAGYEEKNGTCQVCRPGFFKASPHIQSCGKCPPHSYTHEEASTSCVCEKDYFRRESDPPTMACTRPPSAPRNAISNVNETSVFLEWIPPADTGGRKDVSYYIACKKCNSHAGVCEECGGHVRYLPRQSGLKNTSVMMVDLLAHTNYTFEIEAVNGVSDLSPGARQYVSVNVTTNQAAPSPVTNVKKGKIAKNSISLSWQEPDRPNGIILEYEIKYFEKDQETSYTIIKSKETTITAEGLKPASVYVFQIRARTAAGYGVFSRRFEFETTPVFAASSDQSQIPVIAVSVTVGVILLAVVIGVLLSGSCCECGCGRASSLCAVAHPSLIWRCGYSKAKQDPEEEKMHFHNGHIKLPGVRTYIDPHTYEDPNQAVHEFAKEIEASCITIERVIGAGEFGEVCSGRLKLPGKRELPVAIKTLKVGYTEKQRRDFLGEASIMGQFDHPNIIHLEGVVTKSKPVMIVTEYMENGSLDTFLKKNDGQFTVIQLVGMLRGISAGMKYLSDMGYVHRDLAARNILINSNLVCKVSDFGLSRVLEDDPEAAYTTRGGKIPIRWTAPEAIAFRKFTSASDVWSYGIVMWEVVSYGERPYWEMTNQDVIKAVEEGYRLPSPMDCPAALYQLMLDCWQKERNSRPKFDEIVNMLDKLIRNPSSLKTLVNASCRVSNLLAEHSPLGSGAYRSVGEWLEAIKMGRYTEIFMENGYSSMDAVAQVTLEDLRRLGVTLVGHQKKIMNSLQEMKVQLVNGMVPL
Chain of SRMS (Q9H3Y6 whole entry): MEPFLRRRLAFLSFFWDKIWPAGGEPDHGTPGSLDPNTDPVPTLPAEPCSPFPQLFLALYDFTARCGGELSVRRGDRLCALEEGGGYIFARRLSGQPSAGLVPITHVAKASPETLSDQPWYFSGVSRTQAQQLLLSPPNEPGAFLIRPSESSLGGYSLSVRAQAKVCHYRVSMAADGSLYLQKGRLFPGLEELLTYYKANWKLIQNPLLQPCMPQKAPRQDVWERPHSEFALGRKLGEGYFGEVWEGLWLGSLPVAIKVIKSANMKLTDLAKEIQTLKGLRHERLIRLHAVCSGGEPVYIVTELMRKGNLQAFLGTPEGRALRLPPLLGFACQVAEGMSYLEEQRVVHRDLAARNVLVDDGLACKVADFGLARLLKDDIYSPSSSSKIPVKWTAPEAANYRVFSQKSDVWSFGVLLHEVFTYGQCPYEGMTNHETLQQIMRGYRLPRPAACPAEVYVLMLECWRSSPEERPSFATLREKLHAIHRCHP
Chain of LIMK2 (P53671 whole entry): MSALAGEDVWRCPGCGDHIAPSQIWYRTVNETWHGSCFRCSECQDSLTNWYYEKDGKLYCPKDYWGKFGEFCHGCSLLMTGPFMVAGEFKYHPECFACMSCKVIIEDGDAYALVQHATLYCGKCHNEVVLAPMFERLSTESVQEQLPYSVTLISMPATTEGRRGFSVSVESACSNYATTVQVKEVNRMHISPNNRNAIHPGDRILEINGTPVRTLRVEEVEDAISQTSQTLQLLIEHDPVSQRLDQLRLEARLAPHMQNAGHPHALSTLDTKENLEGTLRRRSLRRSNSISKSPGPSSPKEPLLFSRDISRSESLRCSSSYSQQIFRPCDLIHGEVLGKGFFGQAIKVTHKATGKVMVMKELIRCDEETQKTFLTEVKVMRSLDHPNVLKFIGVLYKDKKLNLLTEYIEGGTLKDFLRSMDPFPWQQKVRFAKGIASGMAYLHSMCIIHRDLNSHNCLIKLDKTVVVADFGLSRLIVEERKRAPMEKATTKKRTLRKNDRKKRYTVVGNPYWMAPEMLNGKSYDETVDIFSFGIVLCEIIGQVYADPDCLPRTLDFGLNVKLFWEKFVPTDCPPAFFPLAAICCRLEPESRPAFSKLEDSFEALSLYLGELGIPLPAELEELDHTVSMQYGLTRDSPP
Chain of ROS1 (P08922 28-2347): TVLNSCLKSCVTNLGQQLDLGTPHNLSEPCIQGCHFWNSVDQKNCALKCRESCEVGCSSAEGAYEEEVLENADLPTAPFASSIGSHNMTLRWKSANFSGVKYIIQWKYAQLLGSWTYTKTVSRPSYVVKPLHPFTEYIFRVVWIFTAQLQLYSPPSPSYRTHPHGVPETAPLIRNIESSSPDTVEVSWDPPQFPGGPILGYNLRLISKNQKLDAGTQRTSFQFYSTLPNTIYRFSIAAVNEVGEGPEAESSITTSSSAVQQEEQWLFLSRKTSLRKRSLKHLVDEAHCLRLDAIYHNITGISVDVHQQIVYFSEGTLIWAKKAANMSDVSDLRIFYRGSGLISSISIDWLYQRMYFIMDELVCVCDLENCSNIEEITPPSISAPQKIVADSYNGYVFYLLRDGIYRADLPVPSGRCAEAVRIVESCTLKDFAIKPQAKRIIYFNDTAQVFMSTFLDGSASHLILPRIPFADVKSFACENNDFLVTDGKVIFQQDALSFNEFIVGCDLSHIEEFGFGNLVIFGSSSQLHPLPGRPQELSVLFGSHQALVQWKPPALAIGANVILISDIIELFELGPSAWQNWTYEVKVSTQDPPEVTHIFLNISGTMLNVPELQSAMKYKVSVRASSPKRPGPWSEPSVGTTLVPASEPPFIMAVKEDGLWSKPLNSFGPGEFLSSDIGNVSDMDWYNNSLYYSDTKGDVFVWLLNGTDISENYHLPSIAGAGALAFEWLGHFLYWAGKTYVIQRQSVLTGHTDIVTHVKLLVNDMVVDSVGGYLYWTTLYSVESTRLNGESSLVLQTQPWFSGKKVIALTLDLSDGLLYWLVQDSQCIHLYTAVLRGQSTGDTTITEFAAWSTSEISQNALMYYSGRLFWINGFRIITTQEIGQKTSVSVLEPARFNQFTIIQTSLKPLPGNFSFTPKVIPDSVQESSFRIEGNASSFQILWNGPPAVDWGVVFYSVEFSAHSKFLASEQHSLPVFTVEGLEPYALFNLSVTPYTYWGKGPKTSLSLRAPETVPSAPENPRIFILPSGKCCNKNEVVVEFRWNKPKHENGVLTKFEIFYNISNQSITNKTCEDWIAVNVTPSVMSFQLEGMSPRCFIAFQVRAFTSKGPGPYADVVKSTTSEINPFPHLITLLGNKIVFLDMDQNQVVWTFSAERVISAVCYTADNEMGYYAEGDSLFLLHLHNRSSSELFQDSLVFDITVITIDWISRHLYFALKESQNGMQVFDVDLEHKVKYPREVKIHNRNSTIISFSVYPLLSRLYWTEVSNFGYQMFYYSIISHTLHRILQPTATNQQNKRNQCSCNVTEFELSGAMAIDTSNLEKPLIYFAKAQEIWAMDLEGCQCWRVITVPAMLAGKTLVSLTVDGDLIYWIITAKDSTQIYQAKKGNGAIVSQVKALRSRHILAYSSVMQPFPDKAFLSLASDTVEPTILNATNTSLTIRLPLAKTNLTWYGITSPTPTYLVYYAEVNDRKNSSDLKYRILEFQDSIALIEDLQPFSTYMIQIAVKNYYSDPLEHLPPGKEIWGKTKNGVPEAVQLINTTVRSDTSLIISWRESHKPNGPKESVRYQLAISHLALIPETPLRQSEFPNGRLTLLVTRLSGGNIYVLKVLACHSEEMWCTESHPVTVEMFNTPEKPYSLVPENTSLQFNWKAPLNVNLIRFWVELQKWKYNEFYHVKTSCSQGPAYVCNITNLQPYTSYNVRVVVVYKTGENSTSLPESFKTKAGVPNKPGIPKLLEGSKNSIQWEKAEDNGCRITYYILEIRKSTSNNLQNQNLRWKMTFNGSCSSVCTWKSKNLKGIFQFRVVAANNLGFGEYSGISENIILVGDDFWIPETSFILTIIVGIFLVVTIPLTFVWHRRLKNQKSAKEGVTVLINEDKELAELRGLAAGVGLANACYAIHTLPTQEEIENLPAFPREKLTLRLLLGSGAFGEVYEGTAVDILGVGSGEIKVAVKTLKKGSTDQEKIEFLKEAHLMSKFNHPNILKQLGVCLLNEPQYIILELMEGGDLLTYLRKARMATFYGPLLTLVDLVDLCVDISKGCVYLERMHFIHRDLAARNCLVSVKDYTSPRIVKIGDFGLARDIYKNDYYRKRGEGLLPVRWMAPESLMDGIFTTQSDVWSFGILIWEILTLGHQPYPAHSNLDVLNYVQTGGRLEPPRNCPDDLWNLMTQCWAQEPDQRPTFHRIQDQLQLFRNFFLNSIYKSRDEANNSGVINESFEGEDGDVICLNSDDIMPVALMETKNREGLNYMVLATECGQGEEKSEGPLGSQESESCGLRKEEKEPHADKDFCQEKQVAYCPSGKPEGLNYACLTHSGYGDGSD
Chain of RPS6KA4 Kin.Dom.2-C-terminal (O75676 411-674 limits assumed): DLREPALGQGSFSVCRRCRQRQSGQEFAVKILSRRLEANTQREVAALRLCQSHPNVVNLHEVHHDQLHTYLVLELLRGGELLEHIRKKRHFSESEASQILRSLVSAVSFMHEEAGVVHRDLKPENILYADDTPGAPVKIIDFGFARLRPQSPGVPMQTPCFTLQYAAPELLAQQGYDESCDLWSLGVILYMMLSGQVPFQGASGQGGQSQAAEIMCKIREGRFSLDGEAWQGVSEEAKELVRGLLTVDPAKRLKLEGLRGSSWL
Chain of RPS6KA5 Kin.Dom.2-C-terminal (O75582 426-687 limits assumed): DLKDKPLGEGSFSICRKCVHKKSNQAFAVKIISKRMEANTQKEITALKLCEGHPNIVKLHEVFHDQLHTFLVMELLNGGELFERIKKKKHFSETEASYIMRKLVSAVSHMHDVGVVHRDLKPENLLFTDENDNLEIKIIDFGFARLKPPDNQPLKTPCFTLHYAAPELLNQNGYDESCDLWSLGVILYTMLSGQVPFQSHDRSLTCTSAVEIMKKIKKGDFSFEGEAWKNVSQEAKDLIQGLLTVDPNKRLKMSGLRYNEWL

## Nc1ncc(-c2nc3ccccc3o2)c(-c2ccncc2)n1 [Comparative Compound 324, 5-(1,3-benzoxazol-2-yl)-4-(pyridine-4-yl)pyrimidin-2-amine]
[1]
  remaining binding at 10 µM: 75%
ABL1 phosphorylated
  remaining binding at 10 µM: 98%
CDK11
  remaining binding at 10 µM: 100%
CSNK1G1
  remaining binding at 10 µM: 93%
DCAMKL3
  remaining binding at 10 µM: 100%
DYRK1A
  remaining binding at 10 µM: 87%
EGFR (L861Q)
  remaining binding at 10 µM: 64%
EPHA2
  remaining binding at 10 µM: 98%
EPHA3
  remaining binding at 10 µM: 86%
EPHA5
  remaining binding at 10 µM: 100%
EPHA6
  remaining binding at 10 µM: 100%
FAK
  remaining binding at 10 µM: 99%
FGFR2
  remaining binding at 10 µM: 63%
HIPK2
  remaining binding at 10 µM: 67%
IRAK1
  remaining binding at 10 µM: 87%
KIT (D816H)
  remaining binding at 10 µM: 86%
LIMK1
  remaining binding at 10 µM: 100%
LIMK2
  remaining binding at 10 µM: 100%
MAP4K2
  remaining binding at 10 µM: 100%
MAP4K3
  remaining binding at 10 µM: 100%
MEK5
  remaining binding at 10 µM: 66%
MKNK1
  remaining binding at 10 µM: 96%
MYO3A
  remaining binding at 10 µM: 98%
PAK3
  remaining binding at 10 µM: 95%
PAK6
  remaining binding at 10 µM: 100%
PAK7
  remaining binding at 10 µM: 96%
PDPK1
  remaining binding at 10 µM: 100%
PFCDPK1 P. falciparum
  remaining binding at 10 µM: 78%
PIK3CA (E545A)
  remaining binding at 10 µM: 76%
PIK3CA (E545K)
  remaining binding at 10 µM: 82%
PIK3CA (I800L)
  remaining binding at 10 µM: 52%
PIK3CA (M1043I)
  remaining binding at 10 µM: 100%
PLK4
  remaining binding at 10 µM: 69%
RET (V804M)
  remaining binding at 10 µM: 100%
ROS1
  remaining binding at 10 µM: 100%
[2]
  remaining binding at 10 µM: 100%
[3]
  remaining binding at 10 µM: 96%
[4]
  remaining binding at 10 µM: 100%
SRMS
  remaining binding at 10 µM: 100%
TTK
  remaining binding at 10 µM: 100%

## CNc1c(C(N)=O)c2ccccn2c1C(=O)c1ccc(F)cc1 [Compound A, 2-methyl-amino-3-[(4-fluorophenyl)carbonyl]indolizine-1-carboxamide]
[1]
  remaining binding at 10 µM: 46%
ABL1 phosphorylated
  remaining binding at 10 µM: 51%
CDK11
  remaining binding at 10 µM: 95%
CSNK1G1
  remaining binding at 10 µM: 88%
DCAMKL3
  remaining binding at 10 µM: 100%
DYRK1A
  remaining binding at 10 µM: 74%
EGFR (L861Q)
  remaining binding at 10 µM: 29%
EPHA2
  remaining binding at 10 µM: 70%
EPHA3
  remaining binding at 10 µM: 68%
EPHA5
  remaining binding at 10 µM: 70%
EPHA6
  remaining binding at 10 µM: 96%
FAK
  remaining binding at 10 µM: 92%
FGFR2
  remaining binding at 10 µM: 53%
HIPK2
  remaining binding at 10 µM: 74%
IRAK1
  remaining binding at 10 µM: 93%
KIT (D816H)
  remaining binding at 10 µM: 86%
LIMK1
  remaining binding at 10 µM: 100%
LIMK2
  remaining binding at 10 µM: 100%
MAP4K2
  remaining binding at 10 µM: 100%
MAP4K3
  remaining binding at 10 µM: 100%
MEK5
  remaining binding at 10 µM: 51%
MKNK1
  remaining binding at 10 µM: 100%
MYO3A
  remaining binding at 10 µM: 98%
PAK3
  remaining binding at 10 µM: 75%
PAK6
  remaining binding at 10 µM: 86%
PAK7
  remaining binding at 10 µM: 96%
PDPK1
  remaining binding at 10 µM: 92%
PFCDPK1 P. falciparum
  remaining binding at 10 µM: 0.9%
PIK3CA (E545A)
  remaining binding at 10 µM: 73%
PIK3CA (E545K)
  remaining binding at 10 µM: 77%
PIK3CA (I800L)
  remaining binding at 10 µM: 72%
PIK3CA (M1043I)
  remaining binding at 10 µM: 100%
PLK4
  remaining binding at 10 µM: 70%
RET (V804M)
  remaining binding at 10 µM: 100%
ROS1
  remaining binding at 10 µM: 100%
[2]
  remaining binding at 10 µM: 100%
[3]
  remaining binding at 10 µM: 88%
[4]
  remaining binding at 10 µM: 68%
SRMS
  remaining binding at 10 µM: 93%
TTK
  remaining binding at 10 µM: 92%
